Values quoted from earlier work, collected in US11453692B2, “Non-caloric sweeteners and methods for synthesizing” (Conagen Inc., priority 2014, dated 2022).

Settings: sweetness relative to sucrose

Molecule	times sweeter than sucrose
Stevioside	100-150 times
C=C1C[C@@]23CCC4[C@](C)(C(=O)OC5OC(CO)C(O)C(O)C5O)CCC[C@@]4(C)[C@@H]2CC(OC2OC(CO)C(O)C(OC4OC(CO)C(O)C(O)C4O)C2OC2OC(C)C(O)C(O)C2O)C1C3 (some centres unmarked) [Rebaudioside C]	40-60 times
